Measured values taken from patent publication US9708314B2, “Heterocyclic amide compound” (NISSAN CHEMICAL INDUSTRIES, LTD., priority 2013, dated 2017).

Assays:
Format in all cases: in vivo
[1] = test system: Echinochloa oryzacola Vasing.; assay: Test Example 2: herbicidal activity, application during weed generation in submerged conditions; conditions: Eighteenth Table; application herbicide amount 320 g/ha
In short: (§1)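 Alluvial soil in Wagner pots flooded to 4 cm water depth; seeds sown mixed, grown in greenhouse at 25–30 °C. At one- to two-leaf stage, emulsion diluted with water to the set rate (g/ha) was applied to the water surface. Effect scored 0–5 by herbicidal ratio three weeks later.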

Monochoria vaginalis = assay: as above; conditions: Eighteenth Table; application herbicide amount 320 g/ha
In short: as §1

Scirpus juncoides = assay: as above; conditions: Eighteenth Table; application herbicide amount 320 g/ha
In short: as §1

Abutilon theophrasti = assay: Test Example 4: herbicidal effect by application to foliage (diluvial soil, plastic box); conditions: for M (Abutilon theophrasti) herbicidal effect grade: foliage application
In short: (§2)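 Scores run from 0 (herbicidal ratio ≤5%) to 5 (≥90%, almost fully withered) and were assessed three weeks after foliar spraying. Seedlings had been raised for 14 days at 25-30° C in sterilized diluvial soil before treatment, with the emulsion diluted in water to the stated g/ha dose.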

Alopecurus myosuroides = assay: as above; conditions: for J (Alopecurus myosuroides) herbicidal effect grade: foliage application
In short: as §2

Amaranthus retroflexus = assay: as above; conditions: for N (Amaranthus retroflexus) herbicidal effect grade: foliage application
In short: as §2

Apera spica-venti. = assay: as above; conditions: for L (Apera spica-venti.) herbicidal effect grade: foliage application
In short: as §2

Avena fatua = assay: as above; conditions: for I (Avena fatua) herbicidal effect grade: foliage application
In short: as §2

Chenopodium album = assay: as above; conditions: for O (Chenopodium album) herbicidal effect grade: foliage application
In short: as §2

Digitaria ciliaris = assay: as above; conditions: for F (Digitaria ciliaris) herbicidal effect grade: foliage application
In short: as §2

[2] = test system: Echinochloa crus-galli var. crus-galli; assay: as above; conditions: for H (Echinochloa crus-galli var. crus-galli) herbicidal effect grade: foliage application
In short: as §2

Galium spurium = assay: as above; conditions: for Q (Galium spurium) herbicidal effect grade: foliage application
In short: as §2

Lolium multiflorum Lam. = assay: as above; conditions: for K (Lolium multiflorum Lam.) herbicidal effect grade: foliage application
In short: as §2

Setaria viridis = assay: as above; conditions: for G (Setaria viridis) herbicidal effect grade: foliage application
In short: as §2

Veronica persica = assay: as above; conditions: for R (Veronica persica) herbicidal effect grade: foliage application
In short: as §2

[3] = Application herbicide amount 320 g/ha
[4] = application to foliage, application herbicide amount 320 g/ha

C#CCN(C)c1nnc2c(C(=O)Nc3nnc(C)o3)ccc(C(F)(F)F)n12 [1-152]
A (Echinochloa oryzicola Vasing.) herbicidal ratio grade [1]: 3 (Herbicidal ratio of 40% or more and less than 70%) | C (Monochoria vaginalis) herbicidal ratio grade (Monochoria vaginalis): 3 (Herbicidal ratio of 40% or more and less than 70%) | B (Scirpus juncoides) herbicidal ratio grade (Scirpus juncoides): 3 (Herbicidal ratio of 40% or more and less than 70%) | M (Abutilon theophrasti) herbicidal effect grade (Abutilon theophrasti; [3]): 3 (Herbicidal ratio of 40% or more and less than 70%) | J (Alopecurus myosuroides) herbicidal effect grade (Alopecurus myosuroides; [3]): 0 (Herbicidal ratio of 5% or less (almost no effect)) | N (Amaranthus retroflexus) herbicidal effect grade (Amaranthus retroflexus; [3]): 4 (Herbicidal ratio of 70% or more and less than 90%) | L (Apera spica-venti.) herbicidal effect grade (Apera spica-venti.; [3]): 1 (Herbicidal ratio of 5% or more and less than 20%) | I (Avena fatua) herbicidal effect grade (Avena fatua; [3]): 2 (Herbicidal ratio of 20% or more and less than 40%) | O (Chenopodium album) herbicidal effect grade (Chenopodium album; [3]): 5 (Herbicidal ratio of 90% or more (almost completely withered)) | F (Digitaria ciliaris) herbicidal effect grade (Digitaria ciliaris; [3]): 4 (Herbicidal ratio of 70% or more and less than 90%) | H (Echinochloa crus-galli var. crus-galli) herbicidal effect grade [2, 3]: 4 (Herbicidal ratio of 70% or more and less than 90%) | Q (Galium spurium) herbicidal effect grade (Galium spurium; [3]): 1 (Herbicidal ratio of 5% or more and less than 20%) | K (Lolium multiflorum Lam.) herbicidal effect grade (Lolium multiflorum Lam.; [3]): 1 (Herbicidal ratio of 5% or more and less than 20%) | G (Setaria viridis) herbicidal effect grade (Setaria viridis; [3]): 3 (Herbicidal ratio of 40% or more and less than 70%) | R (Veronica persica) herbicidal effect grade (Veronica persica; [3]): 3 (Herbicidal ratio of 40% or more and less than 70%)

Cn1nnnc1NC(=O)c1ccc(C(F)(F)F)n2c(Br)nnc12 [2-009]
A (Echinochloa oryzicola Vasing.) herbicidal ratio grade [1]: 3 (Herbicidal ratio of 40% or more and less than 70%) | C (Monochoria vaginalis) herbicidal ratio grade (Monochoria vaginalis): 3 (Herbicidal ratio of 40% or more and less than 70%) | B (Scirpus juncoides) herbicidal ratio grade (Scirpus juncoides): 2 (Herbicidal ratio of 20% or more and less than 40%) | M: herbicidal effect on Abutilon theophrasti (Abutilon theophrasti; [4]): 5 (Herbicidal ratio of 90% or more (almost completely withered)) | J: herbicidal effect on Alopecurus myosuroides (Alopecurus myosuroides; [4]): 1 (Herbicidal ratio of 5% or more and less than 20%) | N: herbicidal effect on Amaranthus retroflexus (Amaranthus retroflexus; [4]): 5 (Herbicidal ratio of 90% or more (almost completely withered)) | L: herbicidal effect on Apera spica-venti. (Apera spica-venti.; [4]): 1 (Herbicidal ratio of 5% or more and less than 20%) | I: herbicidal effect on Avena fatua (Avena fatua; [4]): 3 (Herbicidal ratio of 40% or more and less than 70%) | O: herbicidal effect on Chenopodium album (Chenopodium album; [4]): 5 (Herbicidal ratio of 90% or more (almost completely withered)) | F: herbicidal effect on Digitaria ciliaris (Digitaria ciliaris; [4]): 4 (Herbicidal ratio of 70% or more and less than 90%) | H: herbicidal effect on Echinochloa crus-galli var. crus-galli [2, 4]: 5 (Herbicidal ratio of 90% or more (almost completely withered)) | Q: herbicidal effect on Galium spurium (Galium spurium; [4]): 4 (Herbicidal ratio of 70% or more and less than 90%) | K: herbicidal effect on Lolium multiflorum Lam. (Lolium multiflorum Lam.; [4]): 2 (Herbicidal ratio of 20% or more and less than 40%) | G: herbicidal effect on Setaria viridis (Setaria viridis; [4]): 3 (Herbicidal ratio of 40% or more and less than 70%) | R: herbicidal effect on Veronica persica (Veronica persica; [4]): 4 (Herbicidal ratio of 70% or more and less than 90%)

CC(C)N(C)c1nnc2c(C(=O)Nc3nnco3)ccc(C(F)(F)F)n12 [1-122]
A (Echinochloa oryzicola Vasing.) herbicidal ratio grade [1]: 4 (Herbicidal ratio of 70% or more and less than 90%) | C (Monochoria vaginalis) herbicidal ratio grade (Monochoria vaginalis): 3 (Herbicidal ratio of 40% or more and less than 70%) | B (Scirpus juncoides) herbicidal ratio grade (Scirpus juncoides): 3 (Herbicidal ratio of 40% or more and less than 70%) | M (Abutilon theophrasti) herbicidal effect grade (Abutilon theophrasti; [3]): 5 (Herbicidal ratio of 90% or more (almost completely withered)) | J (Alopecurus myosuroides) herbicidal effect grade (Alopecurus myosuroides; [3]): 3 (Herbicidal ratio of 40% or more and less than 70%) | N (Amaranthus retroflexus) herbicidal effect grade (Amaranthus retroflexus; [3]): 5 (Herbicidal ratio of 90% or more (almost completely withered)) | L (Apera spica-venti.) herbicidal effect grade (Apera spica-venti.; [3]): 4 (Herbicidal ratio of 70% or more and less than 90%) | I (Avena fatua) herbicidal effect grade (Avena fatua; [3]): 2 (Herbicidal ratio of 20% or more and less than 40%) | O (Chenopodium album) herbicidal effect grade (Chenopodium album; [3]): 5 (Herbicidal ratio of 90% or more (almost completely withered)) | F (Digitaria ciliaris) herbicidal effect grade (Digitaria ciliaris; [3]): 5 (Herbicidal ratio of 90% or more (almost completely withered)) | H (Echinochloa crus-galli var. crus-galli) herbicidal effect grade [2, 3]: 5 (Herbicidal ratio of 90% or more (almost completely withered)) | Q (Galium spurium) herbicidal effect grade (Galium spurium; [3]): 4 (Herbicidal ratio of 70% or more and less than 90%) | K (Lolium multiflorum Lam.) herbicidal effect grade (Lolium multiflorum Lam.; [3]): 3 (Herbicidal ratio of 40% or more and less than 70%) | G (Setaria viridis) herbicidal effect grade (Setaria viridis; [3]): 5 (Herbicidal ratio of 90% or more (almost completely withered)) | R (Veronica persica) herbicidal effect grade (Veronica persica; [3]): 5 (Herbicidal ratio of 90% or more (almost completely withered))

COc1ccc(CSc2nnc3c(C(=O)Nc4nnc(C)o4)ccc(C(F)(F)F)n23)cc1 [1-114]
A (Echinochloa oryzicola Vasing.) herbicidal ratio grade [1]: 0 (Herbicidal ratio of 5% or less (almost no effect)) | C (Monochoria vaginalis) herbicidal ratio grade (Monochoria vaginalis): 0 (Herbicidal ratio of 5% or less (almost no effect)) | B (Scirpus juncoides) herbicidal ratio grade (Scirpus juncoides): 1 (Herbicidal ratio of 5% or more and less than 20%) | M (Abutilon theophrasti) herbicidal effect grade (Abutilon theophrasti; [3]): 2 (Herbicidal ratio of 20% or more and less than 40%) | J (Alopecurus myosuroides) herbicidal effect grade (Alopecurus myosuroides; [3]): 0 (Herbicidal ratio of 5% or less (almost no effect)) | N (Amaranthus retroflexus) herbicidal effect grade (Amaranthus retroflexus; [3]): 3 (Herbicidal ratio of 40% or more and less than 70%) | L (Apera spica-venti.) herbicidal effect grade (Apera spica-venti.; [3]): 0 (Herbicidal ratio of 5% or less (almost no effect)) | I (Avena fatua) herbicidal effect grade (Avena fatua; [3]): 0 (Herbicidal ratio of 5% or less (almost no effect)) | O (Chenopodium album) herbicidal effect grade (Chenopodium album; [3]): 5 (Herbicidal ratio of 90% or more (almost completely withered)) | F (Digitaria ciliaris) herbicidal effect grade (Digitaria ciliaris; [3]): 1 (Herbicidal ratio of 5% or more and less than 20%) | H (Echinochloa crus-galli var. crus-galli) herbicidal effect grade [2, 3]: 3 (Herbicidal ratio of 40% or more and less than 70%) | Q (Galium spurium) herbicidal effect grade (Galium spurium; [3]): 1 (Herbicidal ratio of 5% or more and less than 20%) | K (Lolium multiflorum Lam.) herbicidal effect grade (Lolium multiflorum Lam.; [3]): 0 (Herbicidal ratio of 5% or less (almost no effect)) | G (Setaria viridis) herbicidal effect grade (Setaria viridis; [3]): 0 (Herbicidal ratio of 5% or less (almost no effect)) | R (Veronica persica) herbicidal effect grade (Veronica persica; [3]): 3 (Herbicidal ratio of 40% or more and less than 70%)

CC[S+]([O-])c1nnc2c(C(=O)Nc3nnnn3C)ccc(C(F)(F)F)n12 (stereo not drawn) [2-031]
A (Echinochloa oryzicola Vasing.) herbicidal ratio grade [1]: 5 (Herbicidal ratio of 90% or more (almost completely withered)) | C (Monochoria vaginalis) herbicidal ratio grade (Monochoria vaginalis): 4 (Herbicidal ratio of 70% or more and less than 90%) | B (Scirpus juncoides) herbicidal ratio grade (Scirpus juncoides): 4 (Herbicidal ratio of 70% or more and less than 90%) | M (Abutilon theophrasti) herbicidal effect grade (Abutilon theophrasti; 320 g/ha): 5 (Herbicidal ratio of 90% or more (almost completely withered)) | J (Alopecurus myosuroides) herbicidal effect grade (Alopecurus myosuroides; 320 g/ha): 4 (Herbicidal ratio of 70% or more and less than 90%) | N (Amaranthus retroflexus) herbicidal effect grade (Amaranthus retroflexus; 320 g/ha): 5 (Herbicidal ratio of 90% or more (almost completely withered)) | L (Apera spica-venti.) herbicidal effect grade (Apera spica-venti.; 320 g/ha): 5 (Herbicidal ratio of 90% or more (almost completely withered)) | I (Avena fatua) herbicidal effect grade (Avena fatua; 320 g/ha): 5 (Herbicidal ratio of 90% or more (almost completely withered)) | O (Chenopodium album) herbicidal effect grade (Chenopodium album; 320 g/ha): 5 (Herbicidal ratio of 90% or more (almost completely withered)) | F (Digitaria ciliaris) herbicidal effect grade (Digitaria ciliaris; 320 g/ha): 5 (Herbicidal ratio of 90% or more (almost completely withered)) | H (Echinochloa crus-galli var. crus-galli) herbicidal effect grade ([2]; 320 g/ha): 5 (Herbicidal ratio of 90% or more (almost completely withered)) | Q (Galium spurium) herbicidal effect grade (Galium spurium; 320 g/ha): 5 (Herbicidal ratio of 90% or more (almost completely withered)) | K (Lolium multiflorum Lam.) herbicidal effect grade (Lolium multiflorum Lam.; 320 g/ha): 5 (Herbicidal ratio of 90% or more (almost completely withered)) | G (Setaria viridis) herbicidal effect grade (Setaria viridis; 320 g/ha): 5 (Herbicidal ratio of 90% or more (almost completely withered)) | R (Veronica persica) herbicidal effect grade (Veronica persica; 320 g/ha): 5 (Herbicidal ratio of 90% or more (almost completely withered))
